Experimental data reported in patent publication US11578056B2, “Solid forms comprising (S)-2-(2,6-dioxopiperidin-3-yl)-4-((2-fluoro-4-((3-morpholinoazetidin-1-yl)methyl)benzyl)amino)isoindoline-1,3-dione and salts thereof, and compositions comprising and methods of using the same” (Celgene Corporation, priority 2019, dated 2023).

How the values were obtained:
Format in all cases: physicochemical
[1] = Solid state stability of free base and salt forms under stress storage conditions;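 on Physical stability: Physical stability judged by XRPD check of crystalline form at end of study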
Experimental: The solid samples were analyzed for both chemical and chiral stability.

[2] = Estimated solubility of free base and salt forms in solvents (aliquot addition, visual)
Experimental: The experiments were carried out by adding the test solvent in aliquots to weighed portions of solid. Whether dissolution had occurred was judged by visual inspection after addition of each solvent aliquot. Solubility numbers were calculated by dividing the total amount of solvent used to dissolve the sample by the weight of the sample. […] The solubility number is expressed as “greater than or equal to” if dissolution occurred on addition of the first solvent aliquot.

[3] = Dynamic vapor sorption (DVS) hygroscopicity
Experimental: Dynamic vapor sorption (DVS) was measured using DVS advantage (Surface Measurement Systems Ltd). The samples were tested under isotherm (25° C.) at a targeted RH of 0 to 95% full cycle in step mode. For an isotherm test, the chamber temperature is maintained by a water bath at constant 25.0±1.0° C. The relative humidity in the sample chamber is generated by combining different flows of wet and dry nitrogen with variable flow rates. The analysis was performed in 10% RH increments. Sampling rate is 1 sec save data rate is 20 sec. The dm/dt (%) value was set at 0.001 with a dm/dt window of 5 min., a minimum stability duration time of 10 min, and a maximum stage time of 180 min. The sample's equilibrium weight corresponding to each RH was recorded. A sorption isotherm is obtained by plotting equilibrium moisture content versus RH.

## O=C1CC[C@H](N2C(=O)c3cccc(NCc4ccc(CN5CC(N6CCOCC6)C5)cc4F)c3C2=O)C(=O)N1 [Free base]
[1]; 40° C.
  Chemical (%): 98.44%
  Chiral (%): 99.03%
[1]; 40° C./80% RH
  Chemical (%): 98.56%
  Chiral (%): 99.02%
[1]; 60° C.
  Chemical (%): 95.80%
  Chiral (%): 98.69%
  Physical stability: Unstable
[1]; 60° C./75% RH
  Chemical (%): 98.10%
  Chiral (%): 83.04%
  Physical stability: Unstable
[1]; 70° C.
  Chemical (%): 85.68%
  Chiral (%): 95.57%
  Physical stability: Unstable
[1]; 70° C./80% RH
  Chemical (%): 93.29%
  Chiral (%): 52.01%
  Physical stability: Unstable
[1]; Ambient
  Chemical (%): 98.95%
  Chiral (%): 99.16%

## Fumarate
[1]; 40° C.
  Chemical (%): 98.64%
  Chiral (%): 95.39%
  Physical stability: Stable
[1]; 40° C./80% RH
  Chemical (%): 98.69%
  Chiral (%): 94.55%
  Physical stability: Stable
[1]; 60° C.
  Chemical (%): 97.43%
  Chiral (%): 95.54%
  Physical stability: Stable
[1]; 60° C./75% RH
  Chemical (%): 98.19%
  Chiral (%): 93.14%
  Physical stability: Stable
[1]; 70° C.
  Chemical (%): 95.94%
  Chiral (%): 95.11%
  Physical stability: Stable
[1]; 70° C./80% RH
  Chemical (%): 93.79%
  Chiral (%): 91.52%
  Physical stability: Stable
[1]; Ambient
  Chemical (%): 98.77%
  Chiral (%): 95.82%
[2]; 2-methyl tetrahydrofuran
  Solubility: <1000 µg/mL
[2]; 2-propanol
  Solubility: <1000 µg/mL
[2]; 95:5 2-PrOH/water
  Solubility: 1000 µg/mL
[2]; 95:5 ACN/water
  Solubility: 2000 µg/mL
[2]; 95:5 THF/water
  Solubility: 8000 µg/mL
[2]; 95:5 acetone/water
  Solubility: 2000 µg/mL
[2]; N-methyl pyrrolidone
  Solubility: 17000 µg/mL
[2]; acetone
  Solubility: <1000 µg/mL
[2]; acetonitrile
  Solubility: <1000 µg/mL
[2]; anisole
  Solubility: <1000 µg/mL
[2]; dichloromethane
  Solubility: <1000 µg/mL
[2]; dimethylacetamide
  Solubility: 23000 µg/mL
[2]; dimethylsulfoxide
  Solubility: 36000 µg/mL
[2]; ethanol
  Solubility: <1000 µg/mL
[2]; ethyl acetate
  Solubility: <1000 µg/mL
[2]; ethyl formate
  Solubility: <1000 µg/mL
[2]; isopropyl acetate
  Solubility: <1000 µg/mL
[2]; methanol
  Solubility: 3000 µg/mL
[2]; methyl ethyl ketone
  Solubility: <1000 µg/mL
[2]; methyl tert-butyl ether
  Solubility: <1000 µg/mL
[2]; nitromethane
  Solubility: <1000 µg/mL
[2]; tetrahydrofuran
  Solubility: 1000 µg/mL
[2]; toluene
  Solubility: <1000 µg/mL
[2]; water
  Solubility: 2000 µg/mL

## Cl.Cl.O=C1CC[C@H](N2C(=O)c3cccc(NCc4ccc(CN5CC(N6CCOCC6)C5)cc4F)c3C2=O)C(=O)N1
[3]; below 90% RH
  hygroscopicity (DVS): highly hygroscopic
[3]; from 80% RH to 90% RH
  moisture gain (DVS): ~6.7%
[3]; from 90 to 80% RH
  water content released during desorption (DVS): ~7.0%
[3]; from dry up to 80% RH
  moisture picked up (DVS): ~8.0 % wt

## O=C1CC[C@H](N2C(=O)c3cccc(NCc4ccc(CN5CC(N6CCOCC6)C5)cc4F)c3C2=O)C(=O)N1 [Compound 1 amorphous free base]
[3]; below 75% RH
  hygroscopicity (DVS): relatively high hygroscopicity
[3]; during two full cycles
  sorption/desorption reversibility (DVS): almost reversible
[3]; from dry up to 90% RH
  moisture picked up (DVS): ~6.0 % wt
